For assay [1], the system named is mice. Kind of assay: Formalin assay for persistent inflammatory pain (phase II) in mice. It counts as in vivo, mouse. The note with it: 5% formalin s.c. right hindpaw; compound s.c. same paw 10 minutes after formalin; 10-30 minutes post formalin; across doses. On the procedure: This example illustrates the effect of AP4AmA in mice in phase II of the formalin assay for persistent inflammatory pain. In brief, mice were injected 20 microliters of a 5% full strength formalin solution subcutaneously (s.c.) into the dorsal aspect of the right hindpaw. The mice were returned to the observation cage. The mice were injected 10 microliters s.c. into the same dorsal aspect of the right hindpaw with either vehicle or AP4AmA in varying concentrations 10 minutes after the formalin injection. […]

For assay [2], the system named is mice. Kind of assay: Phenylbenzoquinone-induced abdominal constriction assay for visceral pain in mice. It counts as in vivo, mouse. The procedure: (§1) These examples illustrate the effects of AP4AmA in two similar models of abdominal constriction; acetic acid-induced and phenylbenzoquinone-induced constrictions in mice. The method employed in FIGS. 2A and […] was a modification of the abdominal constriction test described by Collier et. al (Collier, H, O. et. al, Br. J. Pharmacol. Chemother. 32:295-310 (1968)).
Briefly, in FIG. 2B, each animal received an i.p. injection of 0.02% phenylbenzoquinone in a volume of 10 mL/kg. The mouse was placed in an observation chamber shortly after the acetic acid injection and allowed to explore. Testing started five minutes after the acetic acid injection and consisted of 5 minutes of observation during which the number of abdominal constrictions was counted. Abdominal constriction was defined as a lengthwise stretching of the torso with concave arching of the back. AP4AmA and vehicle were administered i.p., in a volume of 10 mL/kg, 3 minutes prior to the administration of acetic acid while morphine was administered i.p., in a volume of 10 mL/kg, 30 minutes prior to the administration of acetic acid.

Assay [3] concerns mice. Description: Acetic acid-induced abdominal constriction assay for visceral pain in mice. It counts as in vivo, mouse. On the procedure:
as §1
Briefly, in FIG. 2A, each animal, received an intraperitoneal (i.p.) injection of 0.9% acetic acid in a volume of 10 mL/kg. The mouse was placed in an observation chamber shortly after the acetic acid injection and allowed to explore. Testing started five minutes after the acetic acid injection and consisted of 10 minutes of observation during which the number of abdominal constrictions was counted. Abdominal constriction was defined as a lengthwise stretching of the torso with concave arching of the back. AP4AmA and vehicle were administered i.p., in a volume of 10 mL/kg, 3 minutes prior to the administration of acetic acid while Morphine was administered i.p., in a volume of 10 mL/kg, 25 minutes prior to the administration of acetic acid.

Assay [4] relates to rats. Kind of assay: Spinal Nerve (L5/L6) Ligation model for neuropathic pain (tactile allodynia, von Frey) in rats. The format is in vivo. The note with it: rat.
Assay [5] deals with mice. Description: Hotplate assay for acute pain in mice. It counts as in vivo, mouse. On the procedure: The action of P^1-5′-[2′-(O)—,3′-(O)-(benzyl)methylenedioxy]adenosine-P^4-5″-adenosine tetraphosphate, (AP4AmA; AP4A-2′, 3′-mono-acetal with phenylacetaldehyde) on mice in the hotplate model illustrates the analgesic affect of compounds of Formula I. The temperature of the hot plate was set at 55 degrees Celsius. Animals were administered subcutaneously AP4AmA or saline into the dorsal aspect of both hind paws in a volume of 20 microliters. This administration occurred 5 minutes prior to placement on the hotplate. Morphine was administered subcutaneously into the back nape of the mouse's neck in a volume of 10 mL/kg.
The time to hindpaw lick was used as the efficacy endpoint.

Assay [6] has as its system rats. The note with it: Jarvis and Kowaluk, 2001; cited from earlier work.
Setting [7] is: mouse hotplate, highest dose of AP4AmA.

Regarding `Nc1ncnc2c1ncn2[C@@H]1O[C@H](COP(=O)(O)OP(=O)(O)OP(=O)(O)OP(=O)(O)OC[C@H]2O[C@@H](n3cnc4c(N)ncnc43)[C@@H]3OC(Cc4ccccc4)O[C@@H]32)[C@@H](O)[C@H]1O` (stereo partly drawn) [AP4AmA, P^1-5′-[2′-(O)—,3′-(O)-(benzyl)methylenedioxy]adenosine-P^4-5″-adenosine tetraphosphate], the “duration of time spent licking the inflamed hind paw” value with mice [1] is on record as “dose dependent pharmacological effect”. For the same compound, the “number of abdominal constrictions” value is “dose dependent pharmacological effect” with mice [2] (0.02% phenylbenzoquinone i.p., compound i.p. 3 minutes prior, across doses) and “dose dependent pharmacological effect” with mice [3] (0.9% acetic acid i.p., compound i.p. 3 minutes prior, across doses). In addition, the “number of abdominal constrictions, compared with morphine” value in the assay with mice [2] (phenylbenzoquinone model, 30 mg/kg AP4AmA i.p.) is “not statistically different from morphine”; in the assay with mice [3] (acetic acid model, 100 mg/kg AP4AmA i.p.), “not statistically different from morphine”. For the same compound, the “gram force required to induce withdrawal of the allodynic hindpaw, compared with morphine” value in the assay on rats [4] (von Frey filaments) is given as “not statistically different from morphine”. Besides, the “gram force required to induce withdrawal of the allodynic hindpaw, compared with vehicle control” value in the assay on rats [4] (von Frey filaments) is “significantly different from vehicle control”. For the same compound, the reversal of allodynia result with rats [4] (0.03 mg/mL, 50 microliters subplantar, 60 minutes prior to testing, versus morphine i.p. 16 mg/kg) is listed as “can reverse the allodynia in the rat to an equivalent level as morphine”. The “time to hindpaw lick, maximal percent effect (MPE %)” value in the assay with mice [5] (mouse hotplate 55 degrees Celsius, s.c. into both hind paws 5 minutes before, across doses) is “dose dependent pharmacological effect”. Further, the “time to hindpaw lick, maximal percent effect, compared with morphine” value with mice [5] (setting [7]) is recorded as “statistically equivalent to morphine”. In addition, the “time to hindpaw lick, maximal percent effect, compared with vehicle control” value with mice [5] (setting [7]) is given as “statistically significant from vehicle control”.
With TNP-ATP, the antinociceptive effects result in the assay with rats [6] was “produce antinociceptive effects in rats”.

The values are drawn from US6881725B2, “Method for treating pain” (Inspire Pharmaceuticals Inc., priority 2002, dated 2005).
